Test results published in ChEMBL document CHEMBL1201862, “PubChem BioAssay data set” (2004).
Active and inactive are the calls of the source.

What was measured:
[1] = NIH/3T3 fibroblast cytotoxicity, dose response, cytotoxicity control for T. cruzi growth inhibitor project, cell-based, cherry-pick samples, set 2 (AID 651817); format: functional; details: NIH3T3
cells [2] = format: functional, cell-based
cells [3] = format: functional, cell-based; remark: listed apart in the source
[4] = target: T1, Trace amine-associated receptor 1 (Homo sapiens, UniProt Q96RJ0); experiment: Counterscreen for agonists of the human trace amine associated receptor 1 (hTAAR1): Fluorescence-based cell-based high throughput dose response assay to identify hTAAR1 agonist that also desensitize TAAR1 receptor response.; format: functional
T1 sequence (Q96RJ0 whole entry): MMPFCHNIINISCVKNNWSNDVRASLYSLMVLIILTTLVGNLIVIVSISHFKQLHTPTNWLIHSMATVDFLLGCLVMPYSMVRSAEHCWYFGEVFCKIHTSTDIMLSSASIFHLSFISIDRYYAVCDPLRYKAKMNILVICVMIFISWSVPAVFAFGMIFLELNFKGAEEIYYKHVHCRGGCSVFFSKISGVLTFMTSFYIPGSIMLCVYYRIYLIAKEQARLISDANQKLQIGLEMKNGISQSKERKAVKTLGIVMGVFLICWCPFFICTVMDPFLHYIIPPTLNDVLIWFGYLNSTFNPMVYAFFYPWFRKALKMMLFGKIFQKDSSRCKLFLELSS

[5] = target: T1, Trace amine-associated receptor 1; experiment: Fluorescence-based cell-based high throughput dose response assay to identify agonists of the human trace amine associated receptor 1 (TAAR1).; format: functional
[6] = T. cruzi intracellular amastigote growth inhibition, dose response, imaging, CA-I/72 strain, bovine embryo skeletal muscle, dry powder (AID 651885); format: functional, cell-based
[7] = HEK293T cytotoxicity, dose response, cytotoxicity control for miR-122 modulator project, cell-based, activator set, cherry-pick (AID 720690); format: functional;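 further: HEK293T human cells scored for general mammalian cytotoxicity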
[8] = target: FAD-linked sulfhydryl oxidase ALR (Homo sapiens, UniProt P55789); experiment: inhibitors of human ALR sulfhydryl oxidase, dose response, biochemical, H2O2 detection, luminescence, cherry-pick (AID 493248)
cells [9] = format: functional, cell-based; remark: listed apart in the source
[10] = target: T2, Nuclear receptor subfamily 0 group B member 1 (Homo sapiens, UniProt P51843); format: functional, cell-based;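 further: HEK293T cells transfected with SF-1 and DAX-1 plus StAR promoter luciferase reporter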
T2 sequence (P51843 whole entry): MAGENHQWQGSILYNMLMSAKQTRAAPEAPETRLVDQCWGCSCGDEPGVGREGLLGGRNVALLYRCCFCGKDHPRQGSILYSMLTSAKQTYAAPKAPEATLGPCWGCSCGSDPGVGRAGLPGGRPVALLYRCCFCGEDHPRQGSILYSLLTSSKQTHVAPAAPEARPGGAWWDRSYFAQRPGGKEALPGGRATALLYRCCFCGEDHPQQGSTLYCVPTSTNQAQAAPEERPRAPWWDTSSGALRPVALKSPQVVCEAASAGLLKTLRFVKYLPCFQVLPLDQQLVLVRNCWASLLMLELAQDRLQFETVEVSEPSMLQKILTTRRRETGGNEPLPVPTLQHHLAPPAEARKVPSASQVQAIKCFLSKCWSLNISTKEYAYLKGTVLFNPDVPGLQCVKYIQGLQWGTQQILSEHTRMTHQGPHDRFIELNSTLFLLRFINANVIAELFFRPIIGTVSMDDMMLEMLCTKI

Chain of FAD-linked sulfhydryl oxidase ALR (P55789 whole entry): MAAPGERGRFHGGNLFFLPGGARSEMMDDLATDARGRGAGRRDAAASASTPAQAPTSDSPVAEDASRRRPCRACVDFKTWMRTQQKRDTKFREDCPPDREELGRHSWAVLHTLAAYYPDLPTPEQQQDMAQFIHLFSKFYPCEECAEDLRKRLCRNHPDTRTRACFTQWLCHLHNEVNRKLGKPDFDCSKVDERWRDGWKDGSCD

In the case of `Cc1ccc(S(=O)(=O)Nc2ccc3c(c2)CC(=O)N([C@@H](C)CO)C[C@@H](C)[C@H](CN(C)Cc2ccccc2)O3)cc1`, the AC50 [1] is reported as 39 µM (inactive).
In the case of `C[C@H]1CN([C@@H](C)CO)C(=O)Cc2cc(NS(=O)(=O)c3ccc(F)cc3)ccc2O[C@H]1CN(C)Cc1ccc(Cl)c(Cl)c1`, the AC50 [1] is reported as 39 µM (inactive).
With `O=C(N[C@@H](Cc1cccnc1)C(=O)N1CCC[C@H]1C(=O)NCCc1ccccc1Cl)c1ccc(Cl)c(Cl)c1` the IC50 (cells [2]) was > 29.9 µM (inactive), the EC50 (cells [3]) was > 29.9 µM (inactive) and the IC50 [4] was 2.6 µM (active). The EC50 [5] was 2.9 µM (active).
For `CC(C)N1C[C@H](C)[C@@H](CN(C)Cc2ccccc2Cl)Oc2c(NC(=O)c3ccncc3)cccc2C1=O`, the IC50 [6] was 0.0201 µM (active).
For `C[C@@H]1CN([C@@H](C)CO)C(=O)c2cccc(NC(=O)c3ccncc3)c2O[C@H]1CN(C)Cc1ccncc1`, the IC50 [6] was 17.3 µM (inconclusive).
In the case of `CN1C(=O)c2cc(NC(=O)c3ccc(C(F)(F)F)cc3)ccc2OC[C@@H]2O[C@@H](CC(=O)NCc3ccc4c(c3)OCO4)CC[C@H]21`, the AC50 [7] is reported as 20.3 µM (active).
With `COc1c(O)cc2oc(-c3ccc(O)cc3)cc(=O)c2c1O` [HISPIDULIN] the AC50 [8] was 0.572 µM (active), the IC50 (cells [9]) was > 67.5 µM (inactive) and the IC50 [10] was > 0.834 µM (active).
